Test results as given in patent US20240277631A1, “SMALL MOLECULE DRUG (ELP-004) TO PREVENT BONE LESIONS CAUSED BY MULTIPLE MYELOMA” (West Virginia University Board of Governors on behalf of …, priority 2023, published 2024).

Legend:
[1] = ability to cross the blood brain barrier
Text: ELP-004 has been evaluated for its ability to cross the blood brain barrier. […] Other medications, such as but not limited to bupropion, are known to cause problems due to dopamine transporter binding.

[2] = system: human myeloma cells (U266 cells); experiment: bone loss in the animal model of multiple myeloma; format: in vivo; details: mice engrafted with human U266 myeloma cells, 60 mg/kg ELP-004 at 72h intervals (summary statement)
Description: Shown are cross-sections of distal femur micro-computer tomographic images from mice treated with 60 mg/kg ELP-004 or vehicle control at 72h intervals after the engraftment of human 2×10^6 myeloma cells (U266 cells). Confirmation of engraftment was verified by measuring serum human IgE levels.

Murine BMSMCs [3] = experiment: TNFα-induced osteoclast fusion (TRAP, multinucleation, marker mRNA); format: cell-based; details: RANKL/TNFα
Description: (A_C) Murine BMSMCs were grown for up to 21 days in media supplemented with 50 ng/ml m-CSF, […] RANKL and 2 ng/ml TNFα. Each experiment was repeated a minimum of three times. Cells were fixed and stained for Tartrate Resistant Acid Phosphatase (TRAP)_activity at days 1, 7, 14 and 21. In schematic A, the number of TRAP positive osteoclast-like cells (out of 100 cells) were counted for each time point; TRAP intensity was also calculated. In schematic B, at each time point the number of nuclei for each cell was counted and the average number of nuclei per cell for 100 cells is shown. […] The expression patterns of osteoclast markers was unaffected by ELP-004, indicating selective inhibition of specific features of osteoclastogenesis.

CYP2C19 = CYP2C19 (Homo sapiens, UniProt P33261); experiment: stability with recombinant CYP2C19; format: in vitro ADME; details: recombinant CYP2C19, intrinsic clearance, read-out: Recombinant CYP CLINT
Description: (§1) Depicted in table 2 is cytochrome P450 phenotyping and inhibition by ELP-004. The stability of ELP-004 was tested in the presence of recombinant enzymes CYP1A2, CYP2B6, CYP2C8, CYP2C9, CYP2C19, CYP2D6, and CYP3A4. ELP-004 (1 μM) was incubated with recombinant enzymes and NADPH. The amount of ELP-004 remaining at each timepoint was analyzed by LC-MS/MS. Incubations in control recombinant enzymes were also performed to assess non-enzymatic mediated stability. The intrinsic clearance of ELP-004 was determined. […] A decrease in the formation of the metabolite compared to vehicle control is used to calculate an IC50 value. Metabolite peak area ratio response as a percentage of vehicle control is plotted against the test compound concentration.

osteoclasts = experiment: development of osteoclasts (osteoclastogenesis); format: cell-based
[4] = system: osteoclasts differentiated from Murine BMSMCs; experiment: matrix resorption (pit formation) on Osteo-Assay surface plates; format: cell-based; details: irrespective of conditions, days 7, 14, 21
Description: Murine BMSMCs were differentiated to form osteoclasts on Osteo-Assay surface plates. The sizes of pits formed by the resorptive activity of osteoclasts differentiated under the three conditions were analyzed at days 7, 14, and 21. Average pit sizes of 10-30 pits are shown.

Murine BMSMCs [5] = experiment: LTB4-induced osteoclast fusion (TRAP, multinucleation, marker mRNA); format: cell-based; details: RANKL/LTB4
Description: FIGS. 6A-C show ELP-004 blocking LTB4-induced Osteoclast Fusion. (A-C) Murine BMSMCs were grown for up to 21 days in media supplemented with 50 ng/ml m-CSF, 1 ng/ml RANKL and 50 nM LTB4. Each experiment was repeated a minimum of three times. Cells were fixed and stained for Tartrate Resistant Acid Phosphatase (TRAP) activity at days 1, 7, 14 and 21. In schematic A, the number of TRAP positive osteoclast-like cells (out of 100 cells) were counted for each time point; TRAP intensity was also calculated. In schematic B, at each time point, the number of nuclei for each cell was counted and the average number of nuclei per cell for 100 cells is shown. In schematic C, mRNA expression of osteoclast markers such as TRAP5, VATPASE A3, VATPASE D2 and Calcitonin Receptor (CALCR) were measured at days 7 and 14 for both control and treated cells by RT-PCR. […] The expression patterns of osteoclast markers was unaffected by ELP-004, indicating selective inhibition of specific features of osteoclastogenesis.

rats = experiment: 1x escalating oral toxicity in rats (IITRI); format: in vivo, rat
[6] = pharmacokinetics in mice, i.v., p.o., s.c.; format: in vivo, female C57B16 mice
Description: ELP-004 was reconstituted in 20% hydroxypropyl-beta-cyclodextrin (HPbCD) and administered to female C57B16 mice (3/timepoint/route of administration) in the fed state. Following i.v. (2 mg/kg) […] from whole blood at 5, 15, and 30 min and at 1, 2, 4, 7, and 24 h. ELP-004 concentration was measured by LC-MS/MS. The data was fit to a two-compartment model and slopes for the a and B elimination were determined.
Depicted in table 1 is pharmacokinetic data of ELP-004 administered via i.v, p.o., and s.c. ELP-004 was reconstituted in 20% hydroxypropyl-beta-cyclodextrin (HPbCD) and administered to female C57B16 mice (3/timepoint/route of administration) in the fed state. Following i.v. (2 mg/kg), s.c. (2 mg/kg), or p.o. (10 mg/kg) administration, plasma was isolated from whole blood at 5, 15, and 30 min and at 1, 2, 4, 7, and 24 h. Plasma from p.o. was not isolated at 5 min. ELP-004 concentration was measured by LC-MS/MS (see below). The limit of quantification was 10 ng/ml and samples below that were not used in the analyses. PK parameters were calculated using Phoenix WinNonlin (Certara, NJ, USA).

[7] = system: CYP isoforms CYP1A2, CYP2B6, CYP2C8, CYP2C9, CYP2C19, CYP2D6, and CYP3A4; experiment: reversible CYP inhibition in human liver microsomes, summary over all isoforms; format: in vitro ADME; details: any CYP, concentration range 0.02-25 μM
Description: as §1

water solubility = format: physicochemical
Text: Those persons of ordinary skill in the art will understand that ELP-004 may be solubilized in ethanol and then diluted in sterile saline. These methods include wherein the route of administration may be, for example but not limited to, the intravenous, intramuscular, or subcutaneous routes, or via the oral route of administration.

Murine BMSMCs [8] = experiment: cytosolic Ca2+ levels and NFAT nuclear translocation during osteoclastogenesis; format: cell-based; details: 100 nM

CYP2C19, sequence (P33261 whole entry): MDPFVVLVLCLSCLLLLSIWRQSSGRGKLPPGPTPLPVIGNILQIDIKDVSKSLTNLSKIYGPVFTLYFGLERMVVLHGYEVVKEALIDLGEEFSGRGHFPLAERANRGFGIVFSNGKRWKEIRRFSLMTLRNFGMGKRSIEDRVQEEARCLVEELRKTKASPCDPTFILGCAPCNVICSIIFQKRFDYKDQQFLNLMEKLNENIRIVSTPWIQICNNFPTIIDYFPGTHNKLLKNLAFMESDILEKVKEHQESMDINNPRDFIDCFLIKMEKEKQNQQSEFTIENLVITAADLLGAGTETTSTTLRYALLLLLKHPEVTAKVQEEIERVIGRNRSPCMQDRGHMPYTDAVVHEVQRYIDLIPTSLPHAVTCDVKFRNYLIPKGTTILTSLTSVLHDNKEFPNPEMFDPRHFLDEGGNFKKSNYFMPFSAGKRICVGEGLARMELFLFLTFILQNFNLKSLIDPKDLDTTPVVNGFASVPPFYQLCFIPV

SMILES: CCC(=O)N(C)c1ccc(Cl)c(Cl)c1 [ELP-004, N-(3,4-dichlorophenyl)-N-methylpropanamide]
- crossing of the blood brain barrier [1]: does not cross the blood brain barrier
- development of bone lesions [2]: strongly suppressed
- TRAP activity (Murine BMSMCs [3]): completed abrogated
- expression patterns of osteoclast markers (Murine BMSMCs [3]): unaffected
- multinucleation (Murine BMSMCs [3]): severely attenuated
- microsomal CLint at 1 μM (CYP2C19): 0.279 µL/min/mg
- development of osteoclasts (osteoclasts; general statement): inhibits the development of osteoclasts in a dose dependent manner
- osteoclast maturation (osteoclasts; summary statement): suppressed
- matrix resorption activity of osteoclasts [4]: No resorption was observed
- TRAP activity (Murine BMSMCs [5]): completed abrogated
- expression patterns of osteoclast markers (Murine BMSMCs [5]): unaffected
- multinucleation (Murine BMSMCs [5]): severely attenuated
- oral LD50 (rats): > 2.5 g/kg body weight
- time until essentially eliminated ([6]; administered orally): ≤ 4 h
- C0 ([6]; female, C57B16, mouse, plasma, iv, i.v. 2 mg/kg): 1220 ng/mL
- reversible inhibition of CYP isoforms [7]: did not inhibit
- water solubility (water solubility): not water soluble
- NFAT nuclear translocation (Murine BMSMCs [8]; LTB4-induced changes): significantly inhibited
- cytosolic Ca2+ levels (Murine BMSMCs [8]; LTB4-induced changes): significantly inhibited
- NFAT nuclear translocation (Murine BMSMCs [8]; RANKL-induced osteoclastogenesis): had no effect
- NFAT nuclear translocation (Murine BMSMCs [8]; TNFα-induced changes): significantly inhibited
- cytosolic Ca2+ levels (Murine BMSMCs [8]; TNFα-induced changes): significantly inhibited
